Consider one molecule from patent publication US11566260B2, “Potentiating agents for protecting plants from fungal infections” (UNIVERSITE D'ANGERS, priority 2012, dated 2023).

Structures are written as SMILES.

Test [1] deals with BY4743 strain of Saccharomyces cerevisiae. The test can be described thus: Test D: growth of S. cerevisiae BY4743 in normal and high osmotic pressure conditions. In kind it is cell-based. On the procedure:
Test D is based on the fact that the protein Pkc1 is implied in the CWI pathway. In a situation where the CWI pathway is impaired, growth of fungal cells is less affected by a high osmotic pressure. Consequently, in Test D, a S. cerevisiae strain is cultured in conditions of high osmotic pressure, in the presence or in absence of the tested compound. If said compound is a Pkc1 inhibitor, it will inhibit the growth of cells in normal osmotic pressure conditions, but not, or less, in high osmotic pressure conditions. Test D is carried out in Example 3.
The growth of a BY4743 strain of Saccharomyces cerevisiae on a liquid SD medium comprising increasing concentrations of chelerythrin (0, 10, 15, 20 or 25 μM) was monitored and compared to the growth of the same strain on a liquid SD medium containing 1M of sorbitol (high osmotic pressure conditions) in presence of increasing concentrations of chelerythrin.
Growth was measured by spectrometry (optic density: 600 nm) Inhibition of growth was assessed by comparison of the area under the curves.

For the next test, the system named is Alternaria brassicicola. Nature of the test: In vivo efficacy on cabbage leaves inoculated with Alternaria brassicicola. As to conditions: 25 μM chelerythrin in inoculum; intact or prewounded B. oleracea cv Bartolo leaves; 6 dpi; vs DMSO side. The procedure: Example 2 discloses a protocol for determining the in vivo efficacy of the composition of the invention, comprising a potentiating amount of chelerythrin (25 μM), as determined in Example 1.
5 μL drops of Alternaria brassicicola conidia suspension (10^5 to 10^3 conidia/mL) were inoculated on intact or prewounded (i.e wherein the synthesis of plant defense molecules such as Brassinin was naturally triggered by the aggression) leaves of B. oleracea cv Bartolo plants at stages 4-6 leaves per plant. Inocula were deposited on the left and right sides symmetrically from the central vein: inocula comprising 25 μM of chelerythrin were deposited on the right side, and inocula comprising DMSO were deposited on the left side. The plants were then maintained under saturing humidity (100% relative humidity).

The term inhibition denotes the relative decrease from the control value, in per cent. As for `COc1ccc2c(c[n+](C)c3c4cc5c(cc4ccc23)OCO5)c1OC` [Chelerythrin], the “Area under the curve” value is reported as 5.2 in test [1] (SD + Sorbitol (1M, high osmotic pressure), 10 μM chelerythrin); 5.0 in test [1] (SD + Sorbitol (1M, high osmotic pressure), 15 μM chelerythrin); 2.0 in test [1] (SD + Sorbitol (1M, high osmotic pressure), 20 μM chelerythrin); 14.3 in test [1] (SD medium, 10 μM chelerythrin); 11.8 in test [1] (SD medium, 15 μM chelerythrin); 10.4 in test [1] (SD medium, 20 μM chelerythrin). Also, the “Area under the curve” value in test [1] (SD medium, 25 μM chelerythrin) stood at 8.1. Moreover, the inhibition at 10 µM in test [1] (Saccharomyces cerevisiae, SD + Sorbitol (1M, high osmotic pressure), 10 μM chelerythrin) was -3%; in test [1] (Saccharomyces cerevisiae, SD medium, 10 μM chelerythrin), 10%. In addition, the inhibition at 15 µM in test [1] (Saccharomyces cerevisiae, SD + Sorbitol (1M, high osmotic pressure), 15 μM chelerythrin) was determined as 1%; in test [1] (Saccharomyces cerevisiae, SD medium, 15 μM chelerythrin), 26%. For the same molecule, the inhibition at 20 µM was 0% in test [1] (Saccharomyces cerevisiae, SD + Sorbitol (1M, high osmotic pressure), 20 μM chelerythrin) and 35% in test [1] (Saccharomyces cerevisiae, SD medium, 20 μM chelerythrin). Besides, the inhibition at 25 µM in test [1] (Saccharomyces cerevisiae, SD medium, 25 μM chelerythrin) turned out to be 49%. Also, the “fungal infection of cabbage leafs” value in the test with Alternaria brassicicola is “limits in vivo the fungal infection”.
